Here are results for one compound from patent US20220281930A1, “COMPOSITIONS AND METHODS FOR THE TREATMENT OF PATHOLOGICAL PAIN AND ITCH” (DUKE UNIVERSITY, priority 2019, published 2022).

Assay [1] has as its system KCC2 promoter. Put plainly: KCC2-LUC luciferase primary screen in primary cortical neurons. It counts as cell-based, mouse. The conditions noted are these: Natural Compounds; rank score; 100 nM, 48 h. The method, then: Cytosine arabinoside ([…]) was added to cultures on the second day after seeding [2 d in vitro (DIV)] to inhibit the proliferation of non-neuronal cells. Cell suspension was plated at a density of 1×10^6 cells/ml onto 24-well tissue-culture dishes coated with poly-d-lysine.
LUC activity was then determined for each compound. Culture supernatant was removed and cells were lysed with 150 μl lysis buffer (Targeting Systems CA, USA cat. CLR1). LUC activity was measured with a RedLuciferase Assay kit (Targeting Systems cat. FLAR) according to the manufacturer's instructions. A Veritas microplate luminometer was used to measure luminescence; for each treatment triplicates of 40 μl cell lysates (from each 24-well tissue-culture dish) were used and 25 μl substrate was injected per well. […] Relative Light units (RLU) for each treatment was derived from Light Units (compound treatment)/vehicle treatment (0.5% DMSO).
The primary screen encompassed three levels of LUC measurements. […] Each compound was ranked based on composite scores from primary and secondary screening.

The test system of assay [2] is KCC2. The assay can be described thus: Composite score from primary and secondary screening. Format: cell-based, mouse. The conditions noted are these: Natural Compounds. On the procedure: (§1) The primary screen encompassed three levels of LUC measurements. The first level of screening yielded a total of 137 compounds with cut-off RLU>125% LUC activity. These 137 compounds were subject to second round of screening, which was carried out in duplicate independent assays to yield the top 103 compounds sorted for highest RLU. The 103 compounds were then subjected to a third round of screening carried out in duplicate independent assays to yield the top 40 compounds which were again ranked. The best 22 of these 40 compounds (ranked for highest RLU activity) were subjected to secondary screening: Cultured neurons were treated with the 22 compounds; RT-qPCR and Clomeleon imaging methodologies (Yeo et al., 2009, J Neurosci 29:14652-14662) were used to determine effects of compounds on KCC2 mRNA expression and [Cl—]i, respectively. Each compound was ranked based on composite scores from primary and secondary screening.
(§2) To identify KCC2 gene expression enhancing compounds, cultured primary cortical neurons were cultured from KCC2-luciferase(LUC)-knockin (KCC2-LUCki) mice (Liedtke et al., 2013, Small 9:1066-1075; Yeo et al., 2013, Proc Natl Acad Sci USA 110:4315-4320) and used LUC metrics as readout for activity of the proximal KCC2 promoter (2.5 kB (Yeo et al., 2009, J Neurosci 29:14652-14662)), which drives LUC in this mouse transgenic line. A Z′ factor of 0.94 was obtained. This strategy will not select for long-range enhancers of KCC2 gene expression that act outside the 2.5 kB core KCC2 promoter. 1057 compounds, contained in two NCI libraries (FIG. 1), related to inhibition of growth of malignantly transformed cells were screened. Iterative screening followed by measurements of KCC2 mRNA (RT-qPCR) and intracellular chloride ([Cl—]i), using clomeleon chloride indicator protein (Kuner and Augustine, 2000, Neuron 27:447-459; Yeo et al., 2009, J Neurosci 29:14652-14662), led to decreasing numbers of confirmed and re-confirmed hits, and 4 “winner” compounds were selected (FIG. 1 and Table 3).

The test system of assay [3] is intracellular chloride ([Cl—]i). Put plainly: Secondary screen: Clomeleon chloride imaging in primary mouse neurons. It counts as cell-based. Further details: chloride reduction (%): concentration or dose not given beside the values. On the procedure: as §1
Chloride imaging of primary cultured cortical neurons was conducted as previously described (Kuner and Augustine, 2000, Neuron 27:447-459; Liedtke et al., 2013, Small 9:1066-1075; Yeo et al., 2009, J Neurosci 29:14652-14662). A Clomeleon expression plasmid was transfected into primary cortical neurons by electroporation (Amaxa Nucleofector Device). Transfected neurons were verified by yellow fluorescent protein (YFP) fluorescence, and ratiometric images (excitation at λ=434 nm, dual emission at λ=485 and 535 nm; for resting chloride, six stable frames at […] were captured, which were averaged) were acquired using RATIOTOOL program. Calibration of Clomeleon signals (535 nm/485 nm emission ratio) was performed by using tributyltin-nigericin to establish a standard curve, which was then normalized for measured intraneuronal pH to take into account the pH sensitivity of Clomeleon.
as §2

In assay [4] the test system is KCC2 protein. Put plainly: KCC2 immuno-staining morphometry of spinal cord dorsal horn. It counts as in vivo, mouse. The conditions noted are these: KP 10 mg/kg; nerve constriction injury and CFA inflammatory pain models. On the procedure:
All mice were deeply anaesthetized with isoflurane and then transcardially perfused with ice-cold 4% paraformaldehyde in 0.1 M phosphate buffer, pH 7.4 (4% PFA). Dissected spinal cord samples were then post-fixed overnight in 4% PFA at 4° C., cryoprotected in a 20% sucrose solution in PBS at 4° C., frozen in Tissue-Tek OCT (Sakura), and stored at −80° C. until sectioning. Samples were sectioned at 20 μm using a cryostat (Microm HM 505N). The sections were blocked with 2% bovine serum albumin (BSA) in PBS with 0.3% Triton X-100 (Blocking solution) at room temperature for 1 h. The sections were treated with primary antibody in blocking solution at 4° C. overnight. The sections were washed three times followed by secondary antibody treatment at 4° C. for 2 hours. Anti-KCC2 antibody was validated as described above for immuno-cytochemistry. The goat anti-rabbit IgG Alexa Fluor 488 was obtained from Invitrogen (A-11008). […]
With the aforementioned findings and in view of the SCDH as the likely site of analgesic action of KP (Coull et al., 2003, Nature 424:938-942; Gagnon et al., 2013, Nat Med 19:1524-1528), SCDH KCC2 expression and function in nerve injury and response to KP was assessed. […] SCDH KCC2 protein expression was measured morphometrically after KCC2 immunolabeling using SCDH laminae I-II as the region-of-interest (FIG. 5B).

The structures appear in SMILES notation.

Regarding `O=C1Cc2c([nH]c3ccc(Br)cc23)-c2ccccc2N1` [kenpaullone, 9-bromo-7,12-dihydro-indolo [3,2-d] [1]benzazepin-6(5H)-one], the “Luciferase Score (triplicates)” value in assay [1] is on record as 2. Besides, in assay [2], the “Top 2 hits” value is “winner”. The “Total Score” value in assay [2] (sum of the three scores) was 6. Further, in assay [3] (Natural Compounds, rank score), the “Clomeleon Score (duplicates)” value turned out to be 2. In addition, the “chloride reduction (%)” value in assay [3] (from the [Cl—]i pair of the same line) was found to be 33.8%. Besides, the “chloride [Cl—]i mM” value in assay [3] (value after compound, control => treated) is listed as 68 => 23 mM. In addition, in assay [4], the “KCC2 protein expression in SCDH” value is “increases KCC2 protein expression”.
